The nature of this data set: Particle size by laser diffraction particle size distribution meter (dry method). It is filed as physicochemical. The settings on record: HELOS&RODOS, drug substance used in the Examples. From the text:
The above-mentioned particle sizes (undersize D50% particle size, undersize D90% particle size etc.) are values measured using a laser diffraction particle size distribution meter (dry method). For example, when a laser diffraction particle size distribution measurement apparatus HELOS & RODOS manufactured by Sympatec GmbH is used, measurement can be performed by setting the measurement range to R3 and the indication basis of the particle amount to volume basis.
The particle size of 3/2 fumarate of compound A used in the following Examples was 0.5-3 μm for undersize D50% and 1-12 μm for undersize D90% particle size, as measured by a dry method using a laser diffraction particle size distribution measurement apparatus, HELOS&RODOS, manufactured by Sympatec GmbH.

Structures can show the parent of a compound that is named as a salt.

For `O=C1Nc2ccccc2C(c2ccccc2)N1C1CCN(Cc2cccc(OC(F)(F)F)c2)CC1` (single isomer, unassigned; (+)) [3/2 fumarate of compound A, (+)-3-{1-[3-(trifluoromethoxy)benzyl]piperidin-4-yl}-4-phenyl-3,4-dihydro-2(1H)-quinazolinone], the “undersize D50% particle size” value is 0.5-3 μm and the “undersize D90% particle size” value is given as 1-12 μm.

(Values after patent US8673353B2, “Tablet having improved elution properties” (Dainippon Sumitomo Pharma Co., Ltd, priority 2008, dated 2014).)
